Assay results published in US20050101611A1, “Oral formulation comprising an inhibitor compound of the ileal bile transport and an hmg co-a reductase inhibitor” (priority 2000, published 2005).

Biological target: T1, ileal bile acid transport system (IBAT) (Homo sapiens, UniProt Q12908)
T1 sequence (Q12908 1-348): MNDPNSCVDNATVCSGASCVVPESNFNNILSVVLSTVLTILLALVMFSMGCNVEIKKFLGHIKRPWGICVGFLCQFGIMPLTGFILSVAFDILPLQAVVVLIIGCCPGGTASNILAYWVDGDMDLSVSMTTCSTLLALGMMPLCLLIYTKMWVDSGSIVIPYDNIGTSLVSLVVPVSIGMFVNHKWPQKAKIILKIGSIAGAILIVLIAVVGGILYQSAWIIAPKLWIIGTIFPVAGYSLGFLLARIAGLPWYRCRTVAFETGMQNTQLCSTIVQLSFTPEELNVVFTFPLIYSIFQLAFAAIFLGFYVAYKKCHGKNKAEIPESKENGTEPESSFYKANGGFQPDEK
Experiment: inhibition of IBAT
Details: statement in background text; no method or data given

## COc1ccc([C@@H]2Sc3ccccc3N(CCN(C)C)C(=O)[C@@H]2OC(C)=O)cc1 [diltiazem]
  inhibition of IBAT: no activity
